From patent US9556226B2, “Peptides with antifungal activity and methods of using the peptides” (THE BOARD OF TRUSTEES OF THE UNIVERSITY OF ARKANSAS, priority 2013, dated 2017)
≈ marks a conversion by molar mass, not a printed value. Bridge positions count the residues as written; N and C are the ends. Peptide text beside a SMILES is read from it. I, II: the chains in the order shown.

Experiments:
[1] = test system: Candida albicans SC5314; format: cell-based; conditions: for antifungal activity relative to comparator peptides (in words) / LD50 in killing assays: Candida albicans SC5314; for percent of C. albicans killed at 5 μM concentration: SC5314, 5
Protocol: Killing assays. The fungicidal activity of the peptides toward Candida albicans was examined by microdilution plate assay as described previously (13). Briefly, from a fresh overnight cultured plate, a single colony was inoculated and diluted in 1 ml of 10 mM sodium phosphate buffer at pH 7.4. Once cell counts had been confirmed by using a hemocytometer, the cells diluted within the same buffer at 1.8×10^5 cells/mil. Cell suspensions of 20 μl were mixed with 20 μl of peptide, which were dissolved in 10 mM sodium phosphate buffer at pH 7.4, and then incubated for 2 hours at 37° C. with shaking at speeds of 550 rpm. The reactions were stopped by the addition of 360 μl yeast nitrogen base (YNB) and then 40 μl of cell suspension was spread onto plates and incubated for 24 hours at 37° C. Sabouraud dextrose agar plates were used for C. albicans killing assay. The number of colony-forming units (CFUs) was counted and each assay was repeated in triplicate. Loss of viability was calculated as [1-(colonies from suspension with peptide/colonies from suspension with no peptide)]×100. For the respiratory activity experiments, Candida albicans was grown in the presence of sodium azide or antimycin A (Sigma Aldrich) before the killing assay was performed.

[2] = test system: CD1 mice; experiment: Immunogenicity in mice, serum dot blot for antibodies against the peptide; format: in vivo
Protocol: Small peptides have the potential to induce an immune response when used for therapeutic purposes. To examine this possibility, mice were injected once per month for four months with 10 mg/kg of the KM12 peptide either by intravenous, intramuscular, or intraperitoneal route. After the fifth month, the mice were euthanized and the serum collected and tested by dot blot analysis for antibodies directed against the KM12 peptide. For each route of injection, five CD1 mice were used. […] It is plausible that the smaller size of those peptides may not elicit an immune response, yet be effect as antifungals. Such studies are currently underway on KM23 and KM29.
(§1) Animal Studies: For the animal studies, CD-1 mice of 8-25 grams were injected with the antifungal peptides dissolved in either phosphate-buffered saline or 5% glucose. Peptide concentrations used for the injection of mice were chosen using a standard up-down protocol starting at 8 mg/kg. Peptides were injected into mice intravenously, intramuscularly, or intraperitoneally as indicated. The mice were closely monitored lbr signs of distress after injection. After two hours of continuous monitoring, the mice were evaluated daily for two weeks and necropsies performed after two weeks. For evaluating the immunogenicity of the peptides, mice were injected with peptides at a concentration of 10 mg/kg in 5% glucose. The routes of injection were intravenous, intramuscular, or intraperitoneal. Five mice were injected with the peptide per route of injection. The mice were injected with the same dose of peptide once per month for four months. The mice were monitored for signs of distress after each injection. At the end of the fifth month, the mice were euthanized by an overdose of anesthesia and the serum was collected from each mouse individually as assay for activity against the peptide using dot blots.

[3] = protein binding evaluation using bovine calf serum (disulfide bond stability); format: in vitro ADME
Description: To alleviate that difficulty, two additional peptides were synthesized, KM23 and KM29. The KM23 peptide was identical in sequence to KM12 except the cysteine residues were removed resulting in a peptide with the sequence Y -K-R-K-F-F-K-R-K-Y (SEQ ID NO: 3). Since there were two phenylalanines at the center of this symmetrical peptide another peptide, designated KM29 was synthesized to yield the symmetric peptide Y-K-R-K-F-K-R-K-Y (SEQ ID NO: 4) with one phenylalanine at the center.

[4] = test system: CD1 mice; experiment: Acute toxicity testing in CD1 mice (up-down protocol); format: in vivo; conditions: for signs observed on tested animals: IV
Protocol: To evaluate acute toxicity in animals, CD1 outbred mice were injected via tail vein with either KM12 or KM14 using a standard up-down concentration protocol and observed for any symptoms consistent with the toxicity of the peptides (Table 4). Mice were initially injected with KM12 or KM14 at a concentration of 8 mg/kg. […] Thus the KM12 peptide was deemed safe for animals at concentrations up to 10 mg/kg and the use of 5% glucose versus phosphate-buffered saline was deemed safer for administration to the animals. We will continue to evaluate acute toxicity with other KM peptides (i.e. KM23 and KM29) that show excellent promise as antifungal compounds. In addition, we plan to evaluate these peptides for treatment of superficial mucosal infections with Candida species.
as §1

[5] = test system: Candida kefyr ATCC4135; experiment: Minimum inhibitory concentration (MIC) assay with resazurin; format: cell-based; conditions: 0.125X RPMI medium, range of three independent experiments
Description: (§2) Minimum Inhibitory Concentration Assays: MIC assays were used to evaluate the minimum concentration of each antifungal peptide that would lead to 100% inhibition of growth. In the MIC assay, the colorimetric indicator, resazurin, is used to evaluate cell growth. Resazurin turns pink after reduction by living cells, indicating active cell growth. The unchanged blue color indicated no active cell growth. Colorimetric MIC end-points are interpreted as the lowest drug concentration that remained blue. The lowest dilution that changed from blue to slightly purple is indicative of significant cell growth inhibition; whereas a pink color indicates no growth inhibition. Each individual Candida species was assayed a minimum of three times and the results represent the range of MIC values obtained. The MIC assay was performed as described by the National Committee for Clinical Laboratory Standards M27-A, except we include resazurin as an indicator dye rather than visual inspection and the […] tissue culture medium was used at 0.125× concentration for our assays.

[6] = test system: Candida albicans SC5314; experiment: as above; format: cell-based; conditions: 0.125X RPMI medium, range of three independent experiments
Description: as §2

[7] = test system: Candida lucitaniae ATCC200951; experiment: as above; format: cell-based; conditions: 0.125X RPMI medium, range of three independent experiments
Description: as §2

[8] = test system: Candida glabrata ATCC90030; experiment: as above; format: cell-based; conditions: 0.125X RPMI medium, range of three independent experiments
Description: as §2

[9] = test system: Candida krusel ATCC6258; experiment: as above; format: cell-based; conditions: 0.125X RPMI medium, range of three independent experiments
Description: as §2

[10] = test system: Candida tropicalis ATCC750; experiment: as above; format: cell-based; conditions: 0.125X RPMI medium, range of three independent experiments
Description: as §2

CC(=O)N[C@@H](CS)C(=O)N[C@@H](Cc1ccccc1)C(=O)N[C@@H](CCCCN)C(=O)N[C@@H](CCCNC(=N)N)C(=O)N[C@@H](CCCCN)C(=O)N[C@@H](Cc1ccc(O)cc1)C(N)=O [KM11, C-F-K-R-K-Y] (Ac-CFKRKY-NH2)
antifungal activity relative to comparator peptides (in words) [1]: did not alter its antifungal activity
Percent killing activity at 25 μM concentration ([1]; SC5314, 25): 95%

CC(=O)N[C@@H](CSSC[C@H](NC(C)=O)C(=O)N[C@@H](Cc1ccccc1)C(=O)N[C@@H](CCCCN)C(=O)N[C@@H](CCCNC(=N)N)C(=O)N[C@@H](CCCCN)C(=O)N[C@@H](Cc1ccc(O)cc1)C(N)=O)C(=O)N[C@@H](Cc1ccccc1)C(=O)N[C@@H](CCCCN)C(=O)N[C@@H](CCCNC(=N)N)C(=O)N[C@@H](CCCCN)C(=O)N[C@@H](Cc1ccc(O)cc1)C(N)=O [KM12, Y-K-R-K-F-C-----C-F-K-R-K-Y]
mice displaying a weak immune response (antibodies against the peptide) ([2]; 10 mg/kg once per month for four months, intramuscular injection): 1/5
mice displaying an immune response (antibodies against the peptide) ([2]; 10 mg/kg once per month for four months, intraperitoneal injection): 0/5
mice showing a moderate immune response (antibodies against the peptide) ([2]; 10 mg/kg once per month for four months, intravenous injection): 1/5
immunogenicity (overall, in words) ([2]; CD1 mice, 10 mg/kg monthly, IV, IM or IP): weakly immunogenic
stability of the disulfide bond in bovine calf serum [3]: readily reduced
signs observed on tested animals ([4]; 8 mg/kg, in PBS, CD1 mice): no toxicity and None
signs observed on tested animals ([4]; 10 mg/kg, IM, IP, in 5% glucose, CD1 mice (n = 15)): no major toxicity and None
signs observed on tested animals ([4]; 10 mg/kg, in PBS, CD1 mice (n = 5)): None
signs observed on tested animals ([4]; 16 mg/kg, in 5% glucose, CD1 mice (n = 2)): Convulsion, no death
dosage deemed safe / well-tolerated in mice ([4]; intravenous, intramuscular or intraperitoneal route): up to 10 mg/kg

CC(=O)N[C@@H](CSSC[C@H](NC(C)=O)C(=O)N[C@@H](Cc1c[nH]c2ccccc12)C(=O)N[C@@H](CCCCN)C(=O)N[C@@H](CCCNC(=N)N)C(=O)N[C@@H](CCCCN)C(=O)N[C@@H](Cc1c[nH]c2ccccc12)C(N)=O)C(=O)N[C@@H](Cc1c[nH]c2ccccc12)C(=O)N[C@@H](CCCCN)C(=O)N[C@@H](CCCNC(=N)N)C(=O)N[C@@H](CCCCN)C(=O)N[C@@H](Cc1c[nH]c2ccccc12)C(N)=O [KM14, W-K-R-K-W-C-----C-W-K-R-K-W]
signs observed on tested animals ([4]; 8 mg/kg, in PBS, CD1 mice): immediate death

CC(=O)N[C@@H](Cc1ccccc1)C(=O)N[C@@H](CCCCN)C(=O)N[C@@H](CSSC[C@H](NC(=O)[C@H](CCCCN)NC(=O)[C@H](Cc1ccccc1)NC(C)=O)C(=O)N[C@@H](CCCNC(=N)N)C(=O)N[C@@H](CCCCN)C(=O)N[C@@H](Cc1ccc(O)cc1)C(N)=O)C(=O)N[C@@H](CCCNC(=N)N)C(=O)N[C@@H](CCCCN)C(=O)N[C@@H](Cc1ccc(O)cc1)C(N)=O [KM16, F-K-C-R-K-Y] (I: Ac-FKCRKY-NH2 / II: Ac-FKCRKY-NH2; disulfide I:3-II:3)
antifungal activity relative to comparator peptides (in words) [1]: very promising antifungal activity compatible with that of KM12 and KM14
percent of C. albicans killed at 5 μM concentration [1]: > 90%

CC(=O)N[C@H]1CSSC[C@@H](C(N)=O)NC(=O)[C@H](Cc2ccc(O)cc2)NC(=O)[C@H](CCCCN)NC(=O)[C@H](CCCNC(=N)N)NC(=O)[C@H](CCCCN)NC(=O)[C@H](Cc2ccccc2)NC1=O [KM17, C-F-K-R-K-Y-C] (Ac-CFKRKYC-NH2; disulfide 1-7)
antifungal activity relative to comparator peptides (in words) [1]: very promising antifungal activity compatible with that of KM12 and KM14
percent of C. albicans killed at 5 μM concentration [1]: > 90%

CC(=O)N[C@@H](Cc1ccc(O)cc1)C(=O)N[C@@H](CCCCN)C(=O)N[C@@H](CCCNC(=N)N)C(=O)N[C@@H](CCCCN)C(=O)N[C@@H](Cc1ccccc1)C(=O)N[C@@H](Cc1ccccc1)C(=O)N[C@@H](CCCCN)C(=O)N[C@@H](CCCNC(=N)N)C(=O)N[C@@H](CCCCN)C(=O)N[C@@H](Cc1ccc(O)cc1)C(N)=O [KM23, Y-K-R-K-F-F-K-R-K-Y] (Ac-YKRKFFKRKY-NH2)
LD50 in killing assays [1]: 62.5 nM
MIC [5]: 1.2 to 4.7 µg/mL
MIC [6]: 4.7 µg/mL (≈ 3.12 µM)
MIC [7]: 2.4 µg/mL (≈ 1.59 µM)
MIC [8]: 75.4 µg/mL (≈ 50.1 µM)
MIC [9]: 4.7 µg/mL (≈ 3.12 µM)
MIC [10]: 2.4 to 4.7 µg/mL

CC(=O)N[C@@H](Cc1ccc(O)cc1)C(=O)N[C@@H](CCCCN)C(=O)N[C@@H](CCCNC(=N)N)C(=O)N[C@@H](CCCCN)C(=O)N[C@@H](Cc1ccccc1)C(=O)N[C@@H](CCCCN)C(=O)N[C@@H](CCCNC(=N)N)C(=O)N[C@@H](CCCCN)C(=O)N[C@@H](Cc1ccc(O)cc1)C(N)=O [KM29, Y-K-R-K-F-K-R-K-Y] (Ac-YKRKFKRKY-NH2)
LD50 in killing assays [1]: 62.5 nM
MIC [5]: 2.1 to 4.3 µg/mL
MIC [6]: 4.2 to 8.4 µg/mL
MIC [7]: 2.1 to 4.2 µg/mL
MIC [8]: 67.5 µg/mL (≈ 49.7 µM)
MIC [9]: 4.2 µg/mL (≈ 3.09 µM)
MIC [10]: 2.1 to 4.2 µg/mL
